Assay results as given in patent US20220142209A1, “METHODS AND COMPOSITIONS FOR IMPROVING THE TASTE OF DIET COLA SODAS AND OTHER BEVERAGES” (priority 2019, published 2022).

Assays:
[1] = Informal taste test of additives mixed into DIET COKE; assay type: in vivo, people
From the text: To provide enabling context for some of the embodiments disclosed herein, simple formulations are described here (with more enablement in the Exemplary Embodiments below). Pour into a cup about 7.5 ounces of a DIET COKE® that includes just aspartame. Mix in about one to two teaspoons of ENACO ERC-A20 decocainized liquid coca leaf extract, both liquids at room temperature. […] Adding a bag of sugar (5 grams) results in an even more pleasant taste while providing a cola soda with 80% less sugar. Using glucose instead of sugar (sucrose) produce a fructose-free, low-sugar, cola soda.
(§1) Taste and aroma are not separate sensory experiences. For example, when many people are afflicted with the common cold, and have stuffy noses, they can lose some or all of the taste of foods. This is attributed to the odor sensors in the nose being blocked. Also, when many people eat foods, they can have a time dependent sensory experience, as the (chewed) food travels to the back of the mouth and then some of the aromas enter the back of the nasal cavity, due to retronasal smell (versus orthonasal smell due to aromas entering the front of the nasal cavity, for example, when you sniff a rose). Thus, in many of the embodiments disclosed herein, the term “taste and/or aroma” is used. Also, the Exemplary Embodiments that follows, statements in changes in taste and/or aroma are based on the opinions of a few people. Not all people drinking the embodiments disclosed herein will experience the same degree of improvement in taste and/or aroma.
For the exemplary embodiments that follow, the examples are performed with all liquids at room temperature. Sodas typically taste more pleasant at lower temperatures (sodas retain carbonation better at lower temperatures, which creates a better taste for many people). Any improvements in taste and/or aroma resulting from any of the following embodiments at room temperature are similar, if not more pleasant, at lower temperatures down to freezing. Tastes and/or aromas can also vary due to the use of soda container: glass, plastic, metal or paper. There are many who think that cola sodas taste best when consumed from glass bottles. For many of the exemplary embodiments disclosed herein, Bodum PAVINA® Coffee Mugs, double-wall insulated glass mugs, 8-ounce size, are used.
One embodiment of an improved cola beverage product is understood with the following exemplary method and resulting exemplary article of manufacture. Pour about 7.5 ounces of DIET COKE® (about 220 grams—about 222 milliliters) into a container such as a cup. Mix in about one half teaspoon to two teaspoons (about 2.5 to 10 grams—about 2.5 to 10 milliliters) of coca leaf extract, for example, the ERC-A20 liquid coca extract available from ENACO (Lima, Peru) or its equivalents. […] Any coca leaf extract with similar chemical components (see FIG. 4 and FIG. 11, for example) to ERC-A20 (the version of the extract circa 2018/2019) can be used, and the extracts can be added to other diet sodas such as COKE ZERO® and COKE ZERO SUGAR®.

[2] = Taste test of ethyl benzoate in hot unsweetened cacao drink; assay type: in vivo, people; conditions: 5 ml of 24 micrograms per milliliter solution in one cup hot water with about two tablespoons unsweetened cacao powder
From the text: as §1
Some of the unpleasant taste of unsweetened cacao can be removed by using ethyl benzoate. In one exemplary embodiment to improve the taste of any brand of unsweetened cacao and/or chocolate made therefrom, prepare one cup of hot water and add about two tablespoons of unsweetened HERSHEY® cacao powder. Mix in 5 milliliters (one teaspoon) of a liquid (e.g., water) solution that has, for example, 24 micrograms per milliliters of ethyl benzoate. […]

[3] = adults and children; cited from earlier work

CC1=CCC(C(C)(C)O)CC1 (stereo not drawn) [alpha-terpineol]
experience of drinking modified DIET COKE ([1]; about one teaspoon of 48 micrograms/milliliter water solution in 220 ml DIET COKE): more pleasant

CCOC(=O)c1ccccc1 [ethyl benzoate]
taste and/or aroma versus untreated DIET COKE ([1]; about 5 ml (one teaspoon) of about 24 micrograms per milliliter solution in 7.5 ounces DIET COKE): more pleasant
taste of resulting beverage ([1]; solution of just ethyl benzoate instead of liquid coca leaf extract, about 7.5 ounces DIET COKE): improvement in taste, but lesser of an improvement than with the leaf extract
pleasantness of resulting beverage [2]: more pleasant

CC1=CCC(C(C)C)=CC1 [gamma-terpinene]
taste of resulting DIET COKE ([1]; one half teaspoon, 40 micrograms/milliliter, in 220 ml DIET COKE): while more pleasant as seen with adding alpha-terpineol, also has less of a “coca cola” taste

O=C([O-])c1ccccc1.[Na+] [sodium benzoate]
Coca-Cola taste ([1]; 1/32nd teaspoon (230 milligrams) in 220 ml DIET COKE): No improvement

COC(=O)c1ccccc1 [methyl benzoate]
DIET COKE taste ([1]; about 5 ml of solution of about 24 micrograms per milliliter): taste similar to that of using ethyl benzoate

OC[C@@H](O)[C@H](O)[C@@H](O)CO [xylitol]
taste of resulting beverage ([1]; one teaspoon powdered xylitol dissolved in 1.5 teaspoons ERC-A20, added to 220 ml DIET COKE): An improvement in taste is experienced
safe amounts [3]: less than 20 grams a day

C=CC(C)(O)CCC=C(C)C (stereo not shown) [linalool]
change in unpleasantness ([1]; one teaspoon, 40 micrograms per milliliter, in 220 ml Diet Coke): little-to-no change
